Where “and” joins values, the source holds several entries; their conditions need not be identical. Identical values can stand only once. Like-named read-outs stand apart in the source and are kept apart here.
System: L. major lysate proteins
Assay: Multitargeted bead mixture chemoproteomics, single concentration competition, proteome-wide
Format: binding
Conditions: for fold change / fold change relative to vehicle control: vehicle control = 1; for fold change relative to vehicle control: competition with free ligand

Nc1nc2cccc(-c3ccccc3)c2n1Cc1ccc(Cl)c(Cl)c1 [compound 3]
fold change vs vehicle control: 1.02 and 1.09 and 1
fold change (LINJ.05.0500 ATPASE ALPHA SUBUNIT): 1.08
fold change (LINJ.36.4570 […] SUBUNIT): 0.83
fold change (LMJF.10.0510 GLYCEROL-3-PHOSPHATE DEH[…] ], GLYCOSOMAL): 0.91
fold change (LMJF.16.1610 PROHIBITIN): 1.25
fold change (LMJF.18.1370 HEAT SHOCK PROTEIN, PUTATIVE): 1.16
fold change (LMJF.19.0300 RNA BINDING PROTEIN, PUTATIVE): 0.91
fold change (LMJF.21.0760 […]-ATP-ASE SUBUNIT 5, PUTATIVE): 0.77
fold change (LMJF.22.0410 HY[…], CONSERVED): 0.97
fold change (LMJF.25.1770 ENOYL-COA REDUCTASE, PUTATIVE): 1.06
fold change (LMJF.26.0300 AMINOPEPTIDASE-LIKE PROTEIN): 0.7
fold change (LMJF.26.2560 HY[…], CONSERVED): 1.1
fold change (LMJF.27.1810 GLYCOSOMAL PHOSPHOENOLPYRUVATE CARBOXYKINASE, PUTATIVE): 1.1
fold change (LMJF.28.0490 PROPIONYL-COA C[…] CHAIN, PUTATIVE): 0.63
fold change (LMJF.29.0940 HY[…], CONSERVED): 1.08
fold change (LMJF.29.1310 CARNITINE/CHOLINE ACETYLTRANSFERASE, PUTATIVE): 0.86
fold change (LMJF.29.1470 HY[…], CONSERVED): 0.86
fold change (LMJF.29.2440 HY[…], CONSERVED): 1.01
fold change (LMJF.30.2350 SPHINGOSINE 1-PHOSPHATE LYASE): 1.2
fold change (LMJF.30.2970 GLYCERALDEHYDE 3-PHOSPHATE DEHYDROGENASE, GLYCOSOMAL): 1.09
fold change (LMJF.30.3390 CAS/CSE/IMPORTIN DOMAIN PROTEIN, PUTATIVE): 0.98
fold change (LMJF.31.2650 ACETOIN DEHYDROGENASE E3 COMPONENT-LIKE PROTEIN): 0.96
fold change (LMJF.31.2970 ACETYL-COA CARBOXYLASE, PUTATIVE): 0.89
fold change (LMJF.33.1030 HY[…], CONSERVED): 0.88
fold change (LMJF.35.5040 polyadenylate-binding protein 1): 0.88
fold change (LMJF.35.5250 ALPHA-1,2-MANNOSYLTRANSFERASE, PUTATIVE): 0.83
fold change (LMJF.36.5100 HY[…], CONSERVED): 1.03
fold change (LMJF.[…] RIBOSOMAL PROTEIN S7, PUTATIVE): 1.35
fold change vs vehicle control (protein LINJ.03.0940 HY[…], CONSERVED): 1.07
fold change vs vehicle control (protein LINJ.09.0030 HY[…], CONSERVED): 0.7
fold change relative to vehicle control (protein LINJ.11.0780 40S RIBOSOMAL PROTEIN S21, PUTATIVE): 1.32
fold change (protein LINJ.13.0990 […] SUBUNIT 2, PUTATIVE): 0.91
fold change vs vehicle control (protein LINJ.13.1460 ALPHA TUBULIN): 0.98
fold change (protein LINJ.15.0090 HEAT SHOCK PROTEIN HSLVU, ATPASE SUBUNIT HSLU, PUTATIVE): 0.88
fold change relative to vehicle control (protein LINJ.16.1380 […], PUTATIVE): 0.96
fold change vs vehicle control (protein LINJ.19.0300 RNA BINDING PROTEIN): 1.22
fold change (protein LINJ.20.0630 CYTIDINE TR[…], PUTATIVE): 1.05
fold change relative to vehicle control (protein LINJ.20.1390 COATOMER BETA SUBUNIT, PUTATIVE): 0.93
fold change vs vehicle control (protein LINJ.21.1310 40S RIBOSOMAL PROTEIN S23, PUTATIVE): 1.16
fold change vs vehicle control (protein LINJ.23.1680 HY[…], CONSERVED): 1.1
fold change vs vehicle control (protein LINJ.25.1170 […] OXIDASE VII, PUTATIVE): 1.01
fold change relative to vehicle control (protein LINJ.25.1220 RIBOSOMAL PROTEIN S25): 1.27
fold change vs vehicle control (protein LINJ.26.1080 HY[…], CONSERVED): 1.08
fold change vs vehicle control (protein LINJ.27.1140 HY[…], CONSERVED): 1.02
fold change vs vehicle control (protein LINJ.28.1100 RIBOSOMAL PROTEIN S20, PUTATIVE): 0.97
fold change relative to vehicle control (protein LINJ.28.1940 R[…] A, 51KDA SUBUNIT, PUTATIVE): 1.1
fold change (protein LINJ.31.2350 ADP-RI[…], PUTATIVE): 1.09
fold change vs vehicle control (protein LINJ.34.0670 […]-ATP-ASE SUBUNIT 11, PUTATIVE): 0.75
fold change (protein LINJ.35.0410 40S RIBOSOMAL PROTEIN S3A, PUTATIVE): 1.1
fold change relative to vehicle control (protein LINJ.35.0780 CBS DOMAIN PROTEIN, CONSERVED): 1.01
fold change vs vehicle control (protein LINJ.36.0510 HY[…], CONSERVED): 0.99
fold change vs vehicle control (protein LINJ.36.3940 40S RIBOSOMAL PROTEIN S27-1, PUTATIVE): 0.88
fold change (protein LINJ.36.4180 HS1VU COMPLEX P[…]-LIKE): 0.87
fold change (protein LINJ.36.7350 […] OXIDASE SUBUNIT I): 0.96
fold change (protein LMJF.01.0520 LONG-CHAIN-FATTY-ACID-COA LIGASE, PUTATIVE): 0.91
fold change vs vehicle control (protein LMJF.02.0460 HY[…], CONSERVED): 1.05
fold change vs vehicle control (protein LMJF.03.0230 LONG CHAIN FATTY ACYL COA SYNTHETASE, PUTATIVE): 0.98
fold change vs vehicle control (protein LMJF.03.0630 HY[…], CONSERVED): 0.95
fold change (protein LMJF.05.0780 HY[…], CONSERVED): 1.06
fold change (protein LMJF.06.0010 HISTONE H4): 1.11
fold change (protein LMJF.06.0140 […] 6 SUBUNIT, PUTATIVE): 0.69
fold change (protein LMJF.06.0650 […], PUTATIVE): 1
fold change vs vehicle control (protein LMJF.08.0510 RIBOSE-PHOSPHATE PYROPHOSPHOKINASE, PUTATIVE): 0.99
fold change vs vehicle control (protein LMJF.08.0550 T[…]-LIKE PROTEIN): 1.01
fold change vs vehicle control (protein LMJF.08.1100 HY[…], CONSERVED): 0.98
fold change relative to vehicle control (protein LMJF.09.1120 MIT[…] BINDING PROTEIN 2,MRP2, GBP25): 1.01
fold change vs vehicle control (protein LMJF.09.1260 HY[…], CONSERVED): 0.98
fold change (protein LMJF.10.1010 NUCLEOSIDE PHOSPHORYLASE-LIKE PROTEIN): 0.97
fold change (protein LMJF.10.1240 HY[…], CONSERVED): 0.91
fold change vs vehicle control (protein LMJF.11.0130 NGG1 I[…] 3-LIKE PROTEIN): 0.94
fold change vs vehicle control (protein LMJF.11.0240 […] 7 SUBUNIT, PUTATIVE): 1.1
fold change (protein LMJF.11.1050 PRETRA[…], ALPHA SUBUNIT, PUTATIVE): 1.24
fold change vs vehicle control (protein LMJF.11.1110 60S RIBOSOMAL PROTEIN L28, PUTATIVE): 1.17
fold change vs vehicle control (protein LMJF.12.0210 […] […]1L8 3, PUTATIVE): 1.07
fold change vs vehicle control (protein LMJF.12.0280 ORNITHINE DECARBOXYLASE, PUTATIVE): 1
fold change vs vehicle control (protein LMJF.13.0450 HY[…], CONSERVED): 0.93
fold change vs vehicle control (protein LMJF.13.0870 MIT[…] ALPHA SUBUNIT, PUTATIVE): 1.33
fold change vs vehicle control (protein LMJF.14.0130 INOSINE-GUANINE […], PUTATIVE): 0.93
fold change (protein LMJF.14.0310 […] 3 SUBUNIT, PUTATIVE): 0.98
fold change (protein LMJF.14.0650 FATTY ACID ELONGASE, PUTATIVE): 1.11
fold change (protein LMJF.14.0660 FATTY ACID ELONGASE, PUTATIVE): 1.17
fold change (protein LMJF.14.0705 FATTY ACID ELONGASE, PUTATIVE): 1.24
fold change (protein LMJF.14.0740 FATTY ACID ELONGASE, PUTATIVE): 1.23
fold change relative to vehicle control (protein LMJF.14.1120 KINESIN K39, PUTATIVE): 1.49
fold change vs vehicle control (protein LMJF.15.0230 LYSYL-TRNA SYNTHETASE, PUTATIVE): 1.01
fold change vs vehicle control (protein LMJF.15.0280 RIBONUCLEOPROTEIN P18, MIT[…], PUTATIVE): 0.99
fold change (protein LMJF.15.1010 GLUTAMATE DEHYDROGENASE): 1.08
fold change relative to vehicle control (protein LMJF.16.0520 HY[…], CONSERVED): 1.36
fold change (protein LMJF.16.0540 ASPARTATE […], PUTATIVE): 1.04
fold change vs vehicle control (protein LMJF.16.0950 SUCROSE-PHOSPHATE SYNTHASE-LIKE PROTEIN): 1.31
fold change vs vehicle control (protein LMJF.16.0960 HY[…], CONSERVED): 0.93
fold change (protein LMJF.16.1180 COATOMER DELTA SUBUNIT-LIKE PROTEIN): 1.08
fold change (protein LMJF.17.0010 HY[…], CONSERVED): 1.07
fold change vs vehicle control (protein LMJF.18.0510 ACONITASE, PUTATIVE): 1.01
fold change vs vehicle control (protein LMJF.18.0890 RAB7 GTP BINDING PROTEIN, PUTATIVE): 0.91
fold change (protein LMJF.18.1130 RAS-RELATED PROTEIN RAB-5, PUTATIVE): 1
fold change (protein LMJF.19.1120 […]-ATP-ASE SUBUNIT, PUTATIVE): 0.82
fold change vs vehicle control (protein LMJF.19.1160 HY[…], CONSERVED): 3.16
fold change vs vehicle control (protein LMJF.19.1530 PEPT[…]-LIKE PROTEIN): 1.01
fold change (protein LMJF.20.0100 PHOSPH[…] C, GLYCOSOMAL): 1.01
fold change vs vehicle control (protein LMJF.21.0720 HY[…], CONSERVED): 0.93
fold change (protein LMJF.21.1250 ADENYLATE KINASE, PUTATIVE): 0.71
fold change (protein LMJF.21.1555 HY[…], CONSERVED): 1.05
fold change (protein LMJF.21.1580 HY[…], UNKNOWN FUNCTION): 1.2
fold change vs vehicle control (protein LMJF.21.1700 […] 2 SUBUNIT, PUTATIVE): 1.03
fold change (protein LMJF.22.0230 AMINO ACID PERMEASE, PUTATIVE): 1.26
fold change (protein LMJF.22.0570 […] SUBUNIT 1, PUTATIVE): 0.99

Reference: publication PMC6199744, “Development of Chemical Proteomics for the Folateome and Analysis of the Kinetoplastid Folateome” (ACS Infectious Diseases, 2018)
